Test results taken from patent US8445473B2, “Heteroaryl-substituted bicyclic Smac mimetics and the uses thereof” (The Regents of the University of Michigan, priority 2008, dated 2013).

Columns and labels:
[1] = target: T1, XIAP BIR3 protein (Homo sapiens, UniProt P98170); assay: Fluorescence polarization competitive binding assay to XIAP BIR3; details: FP competitive binding, SM5F or SM-F1 as the tracer
Excerpt: A sensitive and quantitative in vitro binding assay using the fluorescence polarization (FP) based method was used to determine the binding affinity of Smac mimetics to XIAP protein (Nikolovska-Coleska et al., Anal. Biochem. 332:261-73 (2004)). For this assay, 5-carboxyfluorescein (5-Fam) was coupled to the lysine side chain of the mutated Smac peptide, AbuRPF-K-(5-Fam)-NH2 (termed SM5F). Another fluorescently tagged Smac mimetic (termed SM-F1) with higher affinities than SM5F was also used.
(§1) In competitive binding experiments using SM5F as the tracer to XIAP BIR3 protein, the tested compound was incubated with XIAP BIR3 protein (30 nM) and SM5F (5 nM) in the assay buffer (100 mM potassium phosphate, pH 7.5; 100 μg/ml bovine gamma globulin; 0.02% sodium azide, Invitrogen). Dose-dependent competitive binding FP experiments were carried out with serial dilutions of tested compounds. For each assay, the bound peptide control containing recombinant XIAP BIR3 protein and SM5F (equivalent to 0% inhibition) and free peptide control containing only free SM5F (equivalent to 100% inhibition) will be included. The polarization values were measured after 3 hrs of incubation when the binding reached equilibrium using an ULTRA READER (Tecan U.S. Inc., Research Triangle Park, N.C.). IC50 values, the inhibitor concentration at which 50% of bound peptide is displaced, will be determined from a plot using nonlinear least-squares analysis. Curve fitting will be performed using GRAPHPAD PRISM software (GraphPad Software, Inc., San Diego, Calif.).
as §1, with “using SM-F1” for “using SM5F”, “protein (10” for “protein (30”, “and SM-1F (2” for “and SM5F (5”, “and SM-1F” for “and SM5F”, “free SM-1F” for “free SM5F”
Negative controls containing protein/tracer complex only (equivalent to 0% inhibition), and positive controls containing only free tracers (equivalent to 100% inhibition), were included in each assay plate. FP values were measured as described above. IC50 values were determined by nonlinear regression fitting of the competition curves. The Ki values of competitive inhibitors were calculated using the equation described before (Nikolovska-Coleska et al., Anal. Biochem. 332:261-73 (2004)), based upon the measured IC50 values, the Kd values of the tracer to different proteins, and the concentrations of the proteins and tracers in the competitive assays. Ki values were also calculated using a commonly used equation known in the literature (Huang, X. J. Biomol. Screen. 8:34-38 (2003)).

[2] = target: T2, cIAP1 BIR3 domain (residues 253-363) (Homo sapiens, UniProt Q13490); assay: Fluorescence polarization competitive binding assay to cIAP1 BIR3; details: FP competitive binding, SM5F or SM-F1 as the tracer
T2 construct: The recombinant cIAP1 BIR3 domain (residues 253-363); His-tag
Experimental: (§2) In order to test the binding ability of conformationally constrained Smac mimetics to other IAP proteins (cIAP1 and cIAP2) binding assay conditions were developed. The recombinant cIAP1 BIR3 domain (residues 253-363), cIAP2 BIR3 domain (residues 238-349), fused to a His-tag, were used in the binding assays. Competitive binding assays for other IAP proteins are performed similarly as that described for XIAP BIR3.
(§3) In competitive binding experiments using SM5F as the tracer to cIAP-1 BIR3 protein, the tested compound was incubated with cIAP-1 BIR3 protein (10 nM) and SM5F (2 nM) in the assay buffer. In competitive binding experiments using SM5F as the tracer to cIAP-2 BIR3 protein, the tested compound was incubated with cIAP-2 BIR3 protein (25 nM) and SM5F (2 nM) in the assay buffer. All other procedures for cIAP-1 BIR3 and cIAP-2 BIR3 proteins were the same as those used for XIAP BIR3 protein competitive assays.
(§4) In competitive binding experiments using SM-F1 as the tracer to cIAP-1 BIR3 protein, the tested compound was incubated with cIAP-1 BIR3 protein (3 nM) and SM-F1 (1 nM) in the assay buffer. In competitive binding experiments using SM-F1 as the tracer to cIAP-2 BIR3 protein, the tested compound was incubated with cIAP-2 BIR3 protein (5 nM) and SM-F1 (1 nM) in the assay buffer.

[3] = target: T3, cIAP2 BIR3 domain (residues 238-349) (Homo sapiens, UniProt Q13489); assay: Fluorescence polarization competitive binding assay to cIAP2 BIR3; details: FP competitive binding, SM5F or SM-F1 as the tracer
T3 construct: cIAP2 BIR3 domain (residues 238-349); His-tag
Experimental: as §2, §3, §4

[4] = test system: MDA-MB-231 human breast cancer cell line; assay: Cell growth inhibition, WST-8 assay; type: cell-based; details: MDA-MB-231, 96 h, 4 days
Experimental: (§5) The effect of the compounds of the present invention on the growth of various cancer cell lines was tested. Cells were seeded in 96-well flat bottom cell culture plates at a density of 3000 cells/well with a tested compound and incubated at 37° C. in an atmosphere of 95% air and 5% CO2 for 4 days. The rate of cell growth inhibition after treatment with different concentrations of the compound was determined using a WST-8 kit (2-(2-methoxy-4-nitrophenyl)-3-(4-nitrophenyl)-5-(2, 4 disulfophenyl)-2H-tetrazolium monosodium salt; Dojindo Molecular Technologies, Inc., Gaithersburg, Md.). WST-8 was added at a final concentration of 10% to each well, and then the plates were incubated at 37° C. for 2-3 hrs. The absorbance of the samples was measured at 450 nm using a ULTRA Tecan Reader (Molecular Device). The concentration of the tested compound that inhibited cell growth by 50% (IC50) was calculated by comparing absorbance in untreated cells and the cells treated with the tested compound.

[5] = test system: SK-OV-3 ovarian cancer cell line; assay: Cell growth inhibition, WST-8 assay; type: cell-based; details: Homo sapiens, SK-OV-3, 96 h, 4 days
Experimental: as §5

[6] = Pharmacokinetics in rats following oral administration; details: rat, in vivo, male Sprague-Dawley rats, 25 mg/kg, mean±SD; for AUC(0-inf) / Cmax / Tmax: n=3; for half-life: n=3, read-out: half-life (T½) (converted)
[7] = test system: breast cancer MDA-MB-231 cell line; assay: Induction of cell death, trypan blue exclusion assay; type: cell-based, human; details: MDA-MB-231, 48 hours, FIG. 3
Experimental: (§6) The ability of SM-1238 to induce cell death was tested in the breast cancer MDA-MB-231 and ovarian cancer SK-OV-3 cell lines (FIG. 3). Cells were treated with SM-1238 for 48 hours and cell viability was determined using the trypan blue exclusion assay.

[8] = test system: ovarian cancer SK-OV-3 cell line; assay: as above; type: cell-based, human; details: SK-OV-3, 48 hours, FIG. 3
Experimental: as §6

[9] = target: T1, XIAP BIR3 protein; details: tracer SM5F; Nikolovska-Coleska et al. 2004; cited from earlier work
[10] = target: T4, recombinant cIAP-1 BIR3 (Homo sapiens, UniProt Q13490); details: tracer SM5F; Peng et al. 2008; cited from earlier work
T4 construct: The recombinant cIAP1 BIR3 domain (residues 253-363); His-tag

[11] = target: T5, recombinant cIAP-2 BIR3 (Homo sapiens, UniProt Q13489); details: tracer SM5F; Peng et al. 2008; cited from earlier work
T5 construct: cIAP2 BIR3 domain (residues 238-349); His-tag

[12] = target: XIAP BIR3; details: background statement; cited from earlier work

T1 sequence (P98170 241-356 limits assumed): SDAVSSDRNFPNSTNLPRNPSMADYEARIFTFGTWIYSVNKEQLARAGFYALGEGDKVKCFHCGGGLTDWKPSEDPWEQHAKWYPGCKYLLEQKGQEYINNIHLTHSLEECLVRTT
T2 sequence (Q13490 253-363): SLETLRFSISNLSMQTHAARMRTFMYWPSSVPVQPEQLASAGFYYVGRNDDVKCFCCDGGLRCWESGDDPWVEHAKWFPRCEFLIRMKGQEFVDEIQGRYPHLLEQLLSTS
T3 sequence (Q13489 238-349): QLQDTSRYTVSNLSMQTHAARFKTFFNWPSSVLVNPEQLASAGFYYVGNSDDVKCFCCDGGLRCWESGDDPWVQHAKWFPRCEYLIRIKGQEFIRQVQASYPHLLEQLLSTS
T1 sequence (P98170 241-356 limits assumed): as the sequence (P98170 241-356 limits assumed) above
T4 sequence (Q13490 253-363): as the sequence (Q13490 253-363) above
T5 sequence (Q13489 238-349): as the sequence (Q13489 238-349) above

Row | Molecule | IC50 [1] [nM] | IC50 [2] [nM] | IC50 [3] [nM] | IC50 [4] [nM] | IC50 [5] [nM] | AUC(0-inf) [6] [ng·h/mL] | Cmax [6] [ng/mL] | Tmax [6] [h] | half-life [6] [min] | induction of cell death [7] | induction of cell death [8] | Kd [9] [nM] | Kd [10] [nM] | Kd [11] [nM] | Kd [12] [nM]
1 | CN[C@@H](C)C(=O)N[C@H]1CN(C(=O)CC(C)C)CC[C@H]2CC[C@@H](c3nc4c(-c5ccc(F)cc5)cccc4[nH]3)N2C1=O [SM-1316] | < 500 | < 100 | < 100 | < 3000 | < 3000 | 14300 ± 1970 | 1530 ± 275 | 2 | 402 ± 72 |  |  |  |  |  | 
2 | CN[C@@H](C)C(=O)N[C@H]1CCCC[C@H]2CC[C@@H](c3nc4c(-c5ccccc5)cccc4[nH]3)N2C1=O [SM-1237] | < 200 | < 100 | < 100 | < 3000 | < 3000 |  |  |  |  |  |  |  |  |  | 
3 | CN[C@@H](C)C(=O)N[C@H]1CN(C(=O)CC(C)C)CC[C@H]2CC[C@@H](c3nc4c(-c5ccccc5)cccc4[nH]3)N2C1=O [SM-1238] | < 200 | < 100 | < 100 | < 3000 | < 3000 | 7100 ± 931 | 831 ± 135 | 2 ± 1.7 | 222 ± 120 | induced cell death in both cell lines in a concentration-dependant fashion | induced cell death in both cell lines in a concentration-dependant fashion |  |  |  | 
4 | CN[C@@H](C)C(=O)N[C@H]1CN(C(=O)CCc2ccccc2)CC[C@H]2CC[C@@H](c3nc4c(-c5ccccc5)cccc4[nH]3)N2C1=O [SM-1270] | < 500 | < 100 | < 100 | < 3000 | < 3000 |  |  |  |  |  |  |  |  |  | 
5 | CN[C@@H](C)C(=O)N[C@H]1CN(C(=O)CC(C)C)CC[C@H]2CC[C@@H](c3nc(-c4ccccc4)cs3)N2C1=O [SM-1235] | < 200 | < 1000 | < 1000 | < 3000 | < 3000 |  |  |  |  |  |  |  |  |  | 
6 | CN[C@@H](C)C(=O)N[C@H]1CCCC[C@H]2CC[C@@H](c3nc(-c4ccccc4)cs3)N2C1=O [SM-1229] | < 5000 | < 2000 | < 2000 | < 100000 | < 100000 |  |  |  |  |  |  |  |  |  | 
7 | AbuRPF-K-(5-Fam)-NH2 [SM5F] |  |  |  |  |  |  |  |  |  |  |  | 17.9 | 4.1 | 6.6 | 
8 | mature Smac protein: mature Smac/DIABLO protein, endogenous inhibitor of XIAP (protein, UniProt Q9NR28 22-239, looked up) Diablo IAP-binding …: LCVPVVANFKKRCFSELIRPWHKTVTIGFGVTLCAVPIAQKSEPHSLSSEALMRRAVSLVTDSTSTFLSQTTYALIEAITEYTKAVYTLTSLYRQYTSLLGKMNSEEEDEVWQVIIGARAEMTSKHQEYLKLETTWMTAVGLSEMAAEAAYQTGADQASITARNHIQLVKLQVEEVHQLSRKAETKLAEAQIEELRQKTQEEGEERAESEQEAYLRED |  |  |  |  |  |  |  |  |  |  |  |  |  |  | 420

Now from value to molecule, other results behind:

Row | IC50 [1] [nM] | IC50 [2] [nM] | IC50 [3] [nM] | IC50 [4] [nM] | IC50 [5] [nM] | AUC(0-inf) [6] [ng·h/mL] | Cmax [6] [ng/mL] | Tmax [6] [h] | half-life [6] [min] | Molecule | induction of cell death [7] | induction of cell death [8] | Kd [9] [nM] | Kd [10] [nM] | Kd [11] [nM] | Kd [12] [nM]
9 | < 500 | < 100 | < 100 | < 3000 | < 3000 |  |  |  |  | CN[C@@H](C)C(=O)N[C@H]1CN(C(=O)Cc2ccc(F)cc2)CC[C@H]2CC[C@@H](c3nc4c(-c5ccc(F)cc5)cccc4[nH]3)N2C1=O [SM-1307] |  |  |  |  |  | 
10 | < 500 | < 100 | < 100 | < 3000 | < 3000 |  |  |  |  | CN[C@@H](C)C(=O)N[C@H]1CN(C(=O)Cc2ccccc2)CC[C@H]2CC[C@@H](c3nc4c(-c5ccc(F)cc5)cccc4[nH]3)N2C1=O [SM-1317] |  |  |  |  |  | 
11 | < 500 | < 100 | < 100 | < 3000 | < 3000 |  |  |  |  | CN[C@@H](C)C(=O)N[C@H]1CN(C(=O)Cc2ccccc2)CC[C@H]2CC[C@@H](c3nc4c(-c5ccccc5)cccc4[nH]3)N2C1=O [SM-1257] |  |  |  |  |  | 
12 | < 500 | < 100 | < 100 | < 3000 | < 3000 |  |  |  |  | CN[C@@H](C)C(=O)N[C@H]1CN(C(=O)CCc2ccc(F)cc2)CC[C@H]2CC[C@@H](c3nc4c(-c5ccccc5)cccc4[nH]3)N2C1=O [SM-1271] |  |  |  |  |  | 
13 | < 500 | < 100 | < 100 | < 3000 | < 3000 | 6490 ± 965 | 612 ± 16 | 2 | 252 ± 60 | CN[C@@H](C)C(=O)N[C@H]1CN(C(=O)Cc2ccc(F)cc2)CC[C@H]2CC[C@@H](c3nc4c(-c5ccccc5)cccc4[nH]3)N2C1=O [SM-1268] |  |  |  |  |  | 
14 | < 500 | < 100 | < 100 | < 3000 | < 3000 |  |  |  |  | CN[C@@H](C)C(=O)N[C@H]1CN(C(=O)Cc2ccc(F)cc2)CC[C@H]2CC[C@@H](c3nc4c(-c5ccccc5F)cccc4[nH]3)N2C1=O [SM-1308] |  |  |  |  |  | 
15 | < 5000 | < 100 | < 100 | < 3000 | < 3000 |  |  |  |  | CN[C@@H](C)C(=O)N[C@H]1CN(C(=O)Cc2ccc(F)cc2)CC[C@H]2CC[C@@H](c3nc4c(-c5cccc(F)c5)cccc4[nH]3)N2C1=O [SM-1306] |  |  |  |  |  | 
